# In US7659273B2, “Composition for accelerating bone fracture healing” (Mitsubishi Tanabe Pharma Corporation, priority 2001, dated 2010):
# Test system: fibula fracture region
# Assay: Acceleration of fracture healing in normal rats, Compound (2) microspheres (Experimental Example 2)
# Format: in vivo, rat
# Conditions: Example 7 microspheres; for Fibula Bone Mineral Content / Fibula Bone Volume / Fibula Bone Mineral Density: 2 weeks after suturing; for Fibula Bone Mineral Density: DXA at fracture region; for Breaking Energy: 4 weeks after suturing, three-point bending test
# Procedure: CD (SD) IGS rats (Charles River Japan, Inc.; male; 7-week-old) were housed for seven days at room temperature (23±2° C.) and 50±20% humidity. During the housing period, the rats were free to access commercially available food (from Oriental Bio; CE-2).
# Under ether anesthesia, the left-lower legs of rats were shaved and sterilized with 70% aqueous ethanol; fibulas were exposed with scissors and cut with nail scissors (Natsume Seisakusyo; B17). The cut sections of the fibula were re-matched with tweezers. For the test groups (15 rats/group), the drug-containing microspheres prepared in Example 7, which contains 0.004, 0.02, 0.1 or 0.5 mg of Compound (2), were placed around the cutting site using spatula followed by suturing with silk thread. For the control group (15 rats/group), the same amount of drug-free microspheres prepared in Control Example 2 were placed around the cutting site using spatula followed by suturing with silk thread. Following the suturing, every animal was sterilized with 70% aqueous ethanol. Five rats at two weeks later and 10 rats at four weeks later were taken from each group and sacrificed by laparotomy with bleeding under ether anesthesia and the fibulas were excised.
# The fibula excised at 2 weeks after suturing was subjected to DXA bone densitometer (from Aloka; DCS-600) to determine bone mineral density and bone mineral content at fracture region (scanning width: 1 mm).
# The volume of fibula excised at 2 weeks after suturing was determined using Plethysmometer (Muromachi Kikai Co., Ltd.; TK-101).
# The fibula excised at 4 weeks after suturing was subjected to a three-point bending test with bone strength tester (from Muromachi Kikai Co., Ltd.; TK-252C) to determine bone strength. Briefly, the fibula was supported by two supports apart from each other by 8 mm and the cut section was positioned at the middle of these supports, i.e., 4 mm apart from the respective two supports. Loading (3 mm/minute) from upper direction was kept on the middle point (fracture section) of fibula until fibula begins to fracture. The breaking force […] spent to break the bone was defined as the breaking energy.
smiles,measurement,setting,value
CCOc1cc2cc(CO)c(CO)c(-c3ccnc(-n4nc(-c5cccnc5)c5ccccc5c4=O)c3)c2cc1OCC [Compound (2)],Fibula Bone Mineral Content,drug content 0.004 mg,15.90 ± 1.88 mg
same,Fibula Bone Volume,drug content 0.004 mg,85.0 ± 8.14 µL
same,Fibula Bone Mineral Density,drug content 0.004 mg,46.18 ± 3.18 mg/cm^2
same,Breaking Energy,drug content 0.004 mg,2.66 ± 0.49 mJ
same,Fibula Bone Mineral Content,drug content 0.02 mg,19.86 ± 1.75 mg
same,Fibula Bone Volume,drug content 0.02 mg,97.6 ± 4.99 µL
same,Fibula Bone Mineral Density,drug content 0.02 mg,50.72 ± 2.68 mg/cm^2
same,Breaking Energy,drug content 0.02 mg,2.59 ± 0.55 mJ
same,Fibula Bone Mineral Content,drug content 0.1 mg,23.10 ± 2.72 mg
same,Fibula Bone Volume,drug content 0.1 mg,121.6 ± 13.76 µL
same,Fibula Bone Mineral Density,drug content 0.1 mg,56.06 ± 4.19 mg/cm^2
same,Breaking Energy,drug content 0.1 mg,3.15 ± 0.54 mJ
same,Fibula Bone Mineral Content,drug content 0.5 mg,23.24 ± 2.97 mg
same,Fibula Bone Volume,drug content 0.5 mg,132.2 ± 11.72 µL
same,Fibula Bone Mineral Density,drug content 0.5 mg,52.18 ± 4.36 mg/cm^2
same,Breaking Energy,drug content 0.5 mg,3.27 ± 0.61 mJ
